Measurements published in ChEMBL document CHEMBL3994622, “Design and synthesis of new RAF kinase-inhibiting antiproliferative quinoline derivatives. Part 2: Diarylurea derivatives” (Eur J Med Chem, 2017).

Key:
Assay type in all cases: functional
A498 = assay: Growth inhibition of human A498 cells incubated for 48 hrs by sulforhodamine B assay; details: A498, 48 h
OVCAR-4 = assay: Growth inhibition of human OVCAR4 cells incubated for 48 hrs by sulforhodamine B assay; details: OVCAR-4, 48 h
HCC 2998 = assay: Growth inhibition of human HCC2998 cells incubated for 48 hrs by sulforhodamine B assay; details: HCC 2998, 48 h
NCI-H23 = assay: Growth inhibition of human NCI-H23 cells incubated for 48 hrs by sulforhodamine B assay; details: NCI-H23, 48 h
SK-MEL-28 = assay: Growth inhibition of human SK-MEL-28 cells incubated for 48 hrs by sulforhodamine B assay; details: SK-MEL-28, 48 h
UACC-62 = assay: Growth inhibition of human UACC62 cells incubated for 48 hrs by sulforhodamine B assay; details: UACC-62, 48 h
COLO 205 = assay: Growth inhibition of human COLO205 cells incubated for 48 hrs by sulforhodamine B assay; details: COLO 205, 48 h
NCI/ADR-RES = assay: Growth inhibition of human NCI/ADR-RES cells incubated for 48 hrs by sulforhodamine B assay
OVCAR-8 = assay: Growth inhibition of human OVCAR8 cells incubated for 48 hrs by sulforhodamine B assay; details: OVCAR-8, 48 h
HOP-92 = assay: Growth inhibition of human HOP92 cells incubated for 48 hrs by sulforhodamine B assay; details: HOP-92, 48 h
SK-MEL-2 = assay: Growth inhibition of human SK-MEL-2 cells incubated for 48 hrs by sulforhodamine B assay; details: SK-MEL-2, 48 h
Hs-578T = assay: Growth inhibition of human Hs 578T cells incubated for 48 hrs by sulforhodamine B assay
MDA-MB-231 = assay: Growth inhibition of human MDA-MB-231 cells incubated for 48 hrs by sulforhodamine B assay; details: MDA-MB-231, 48 h
NCI-H226 = assay: Growth inhibition of human NCI-H226 cells incubated for 48 hrs by sulforhodamine B assay; details: NCI-H226, 48 h
SR = assay: Growth inhibition of human SR cells incubated for 48 hrs by sulforhodamine B assay
ACHN = assay: Growth inhibition of human ACHN cells incubated for 48 hrs by sulforhodamine B assay
T47D = assay: Growth inhibition of human T47D cells incubated for 48 hrs by sulforhodamine B assay
UO-31 = assay: Growth inhibition of human UO31 cells incubated for 48 hrs by sulforhodamine B assay; details: UO-31, 48 h
HCT-116 = assay: Growth inhibition of human HCT116 cells incubated for 48 hrs by sulforhodamine B assay; details: HCT-116, 48 h
MOLT-4 = assay: Growth inhibition of human MOLT4 cells incubated for 48 hrs by sulforhodamine B assay; details: MOLT-4, 48 h
NCI-H322M = assay: Growth inhibition of human NCI-H322M cells incubated for 48 hrs by sulforhodamine B assay
[1] = read-out: LC50 (the source's name)

With `COc1cc2cc(Oc3ccc(NC(=O)Nc4cccc(C(F)(F)F)c4)cc3)c(C)nc2cc1OC` the GI50 (A498) was 1.29 µM, the TGI (A498) was 4.95 µM and the CC50 (A498; [1]) was 29.7 µM. For the same compound, the GI50 (OVCAR-4) was 2.3 µM, the TGI (OVCAR-4) was 9.7 µM and the CC50 (OVCAR-4; [1]) was 36 µM. For the same compound, the GI50 (HCC 2998) was 2.59 µM, the TGI (HCC 2998) was > 50 µM and the CC50 (HCC 2998; [1]) was > 50 µM. For the same compound, the GI50 (NCI-H23) was 1.7 µM, the TGI (NCI-H23) was 7.41 µM and the CC50 (NCI-H23; [1]) was > 50 µM. It also gave a GI50 (SK-MEL-28) of 1.97 µM, a TGI (SK-MEL-28) of 8.37 µM and a CC50 (SK-MEL-28; [1]) of 28.2 µM. The GI50 (UACC-62) was 1.84 µM, the TGI (UACC-62) was 10.9 µM and the CC50 (UACC-62; [1]) was > 50 µM. It also gave a GI50 (COLO 205) of 1.12 µM, a TGI (COLO 205) of 2.4 µM and a CC50 (COLO 205; [1]) of 5.7 µM. For the same compound, the GI50 (NCI/ADR-RES) was 1.71 µM, the TGI (NCI/ADR-RES) was 7.19 µM and the CC50 (NCI/ADR-RES; [1]) was 40 µM. For the same compound, the GI50 (OVCAR-8) was 1.71 µM, the TGI (OVCAR-8) was 6.28 µM and the CC50 (OVCAR-8; [1]) was 19.9 µM. It also gave a GI50 (HOP-92) of 1.26 µM, an LC50 (HOP-92) of 21.2 µM and a TGI (HOP-92) of 3.96 µM. It also gave a GI50 (SK-MEL-2) of 1.28 µM, a TGI (SK-MEL-2) of 2.87 µM and a CC50 (SK-MEL-2; [1]) of 9.93 µM. For the same compound, the GI50 (Hs-578T) was 1.44 µM, the TGI (Hs-578T) was 4.22 µM and the CC50 (Hs-578T; [1]) was > 50 µM. The GI50 (MDA-MB-231) was 1.13 µM, the TGI (MDA-MB-231) was 4.15 µM and the CC50 (MDA-MB-231; [1]) was 18.6 µM. For the same compound, the GI50 (NCI-H226) was 1.8 µM, the TGI (NCI-H226) was 5.6 µM and the CC50 (NCI-H226; [1]) was 28.8 µM. The GI50 (SR) was 1.17 µM, the TGI (SR) was 3.33 µM and the CC50 (SR; [1]) was 32 µM. The GI50 (ACHN) was 1.64 µM, the TGI (ACHN) was 7.71 µM and the CC50 (ACHN; [1]) was > 50 µM. The GI50 (T47D) was 1.61 µM, the TGI (T47D) was 6.68 µM and the CC50 (T47D; [1]) was > 50 µM. For the same compound, the GI50 (UO-31) was 1.98 µM, the TGI (UO-31) was 10.8 µM and the CC50 (UO-31; [1]) was > 50 µM. The GI50 (HCT-116) was 1.46 µM, the LC50 (50% lethal concentration) (HCT-116) was 20.4 µM and the TGI (HCT-116) was 5.84 µM. For the same compound, the GI50 (MOLT-4) was 1.55 µM, the LC50 (MOLT-4) was > 50 µM and the TGI (MOLT-4) was 6.87 µM. For the same compound, the GI50 (NCI-H322M) was 2.84 µM, the TGI (NCI-H322M) was 16.6 µM and the CC50 (NCI-H322M; [1]) was > 50 µM.
